Data reported in EP3335720A1, “C-DI-GMP BINDING PEPTIDES” (Universität Basel, priority 2016, dated 2018).
Read-outs that look alike come from different tables or passages of the source. Peptide text beside a SMILES is read from it. * marks the point of attachment. FITC = O=C1OC2(c3ccc(O)cc3Oc3cc(O)ccc32)c2ccc(NC(=S)*)cc21

How the values were obtained:
epithelial HeLa cells = experiment: Cytotoxicity assays: resazurin reduction assay and LDH release assay; assay type: cell-based, human; settings: 24 hours, Figures 11 and 12
Experimental: The cytotoxicity of the peptides was determined with a Resazurin cell viability assay (Sigma #R7017). In a 96-well plate (Corning #3904), monolayers of epithelial HeLa ATCC CCL-2 cells were grown in 100 µl growth medium (DMEM (Sigma #D5796) containing 10% FCS). Afterwards, the medium was removed and either replaced by DMEM/10% FCS containing 2-fold serial diluted peptides with a highest concentration of 256 mg/L. After 24 hours, the medium was removed and replaced by 100 µl fresh growth medium. 1% Triton X-100 (Sigma) was used as positive lysis control. 20 µl of resazurin solution (0.1 mg/ml) was added. After 2 hours, the fluorescence signal was recorded using a microplate reader (Synergy H4 BioTek) with an excitation wavelength of 560 nm and emission wavelength 590 nm.
Cells were prepared and treated with peptides as described for the resazurin reduction assay. 24 hours after peptide treatment, control wells were treated with 1% Triton X-100 (Sigma) as lysis control. LDH release was measured using the LDH Cytotoxicity Detection Kit (Clontech). Absorbance was measured at 490 nm using a microplate reader (Synergy H4 BioTek). The percentage of cell death was calculated as follows: (LDH peptide treated - LDH untreated)/(LDH total lysis - LDH untreated)* 100.

in vitro = in vitro ADME, P. aeruginosa PAO1; settings: cells or culture medium
Experimental: P. aeruginosa PAO1 lysate, which was used to test peptide stability, was prepared by the following procedure. 500 ml of cells grown overnight at 37°C were harvested by centrifugation at 5000 rpm, 10 min at 4°C. Pellets were resuspended in 60 ml PBS (Gibco) and centrifuged at 5000 rpm, 10 min at 4°C. Pellets were resuspended again in 20 ml PBS and centrifuged at 5000 rpm, 10 min at 4°C. Cells were disrupted using high-pressure cell disrupter (Stansted Fluid Power). Cell lysate was separated from cell debris by centrifugation at 14,000 rpm for 20 min at 4°C. Lysate was diluted 10 fold to yield a protein content of about 1 mg/ml. The lysate was used for all experiments described below.
The stability of peptides was tested against P. aeruginosa PAO1 cell lysate. About 1 to 3 µg of peptides were incubated with 5 µl P. aeruginosa PAO1 cell lysate or PBS (untreated controls) at 37°C. After 2 hours, 6 µl of 2x SDS sample buffer was added to the samples and heated to 95°C for 5 min. Samples were analyzed on 10-20% Mini-PROTEAN tris-tricine gels (BIO-RAD #4563115) according to manufacturer's recommended protocol. Band intensities were quantified using the program ImageJ (Schneider, C. A., Rasband, W. S. and Eliceiri, K. W. 2012. NIH Image to ImageJ: 25 years of image analysis. Nature methods. 9: 671-675).

c-di-GMP = experiment: Binding affinity of peptides to c-di-GMP by isothermal titration calorimetry (ITC); settings: for Kd: Table 3, peptides with amino acid substitution, 15°C, pH 8.0, read-out: Dissociation constant
Experimental: Binding affinities of peptides to c-di-GMP were measured using isothermal titration calorimetry (ITC) on a VP-ITC MicroCalorimeter (MicroCal, Northampton, MA, USA). Peptides, c-di-GMP and buffer (50 mM Tris-HCl, pH 8.0, 100 mM NaCl) were degassed for 15 min prior to filling into sample cell and syringe. All experiments were carried out at a temperature of 15°C. The data were evaluated using ITC Data Analysis in ORIGIN provided by the manufacturer.

[1] = tested on: P. aeruginosa PAO1 biofilms; assay type: cell-based
Experimental: The parameter "MBIC50", as used herein, is defined as the peptide concentration leading to 50% biofilm reduction in a standard biofilm assay. Preferably, the medium used for the assay is Mueller-Hinton broth (MHB), since most bacteria can be grown in this medium, and it allows a reliable comparison of MBIC values. MBIC50 values in accordance with the invention are obtained by growing P. aeruginosa at 37°C in presence of different concentrations of peptides, without agitation, for 24 h, followed by staining the adherent biofilm, dissolving the biofilm and measuring the OD600.
The standard biofilm assay (O'Toole G.A., Pratt L.A., Watnick P.I., Newman D.K., Weaver V.B., and Kolter R. 1999. Genetic approaches to study of biofilms. Methods Enzymol. 310: 91-109) was followed with minor modification, i.e. Mueller-Hinton II broth (MHB) (Becton Dickinson #212322) was used instead of lysogenic broth (LB) or minimal medium. MHB is preferred by The European Committee on Antimicrobial Susceptibility Testing (EUCAST) as the medium for MIC determination because most bacteria can be grown in this medium, which allows a more reliable MIC values comparisons. The MBIC50 was defined as the peptide concentration leading to 50% biofilm reduction (de la Fuente-Nunez C., Korolik V., Bains M., Nguyen U., Breidenstein E. B. M., Horsman S., Lewenza S., Burrows L., Hancock, R. E. W. (2012) Inhibition of bacterial biofilm formation and swarming motility by a small synthetic cationic peptide. 56: 2696-2704). MBIC50 values were obtained by growing P. aeruginosa (PAO1) biofilms in 96-well plates (Falcon #353072) in presence of peptides at 37°C without agitation in MHB. After 24 hours, bacterial growth was evaluated by measuring the OD600 in a microtiter plate reader (EL800, BioTek). Afterwards, the plates were rinsed three times with demineralized water to remove non-attached bacteria. The adherent biofilms were stained with 0.1% Crystal Violet and subsequently dissolved in 20% acetic acid. Dissolved biofilms were quantified by measuring the OD600 in a microtiter plate reader.

Compound	remaining at 2 h (in vitro)	Kd (c-di-GMP)	also measured
C[C@H](NC(=O)[C@H](CO)NC(=O)[C@H](CC(N)=O)NC(=O)[C@H](Cc1ccccc1)NC(=O)[C@H](CCCNC(=N)N)NC(=O)[C@H](CCCNC(=N)N)NC(=O)[C@H](CCCNC(=N)N)NC(=O)[C@H](CC(=O)O)NC(=O)[C@H](CCCNC(=N)N)NC(=O)[C@H](CCCNC(=N)N)NC(=O)[C@H](CCCNC(=N)N)NC(=O)[C@H](CCCNC(=N)N)NC(=O)[C@H](CCCNC(=N)N)NC(=O)[C@H](CCCNC(=N)N)NC(=O)[C@H](CCCNC(=N)N)NC(=O)[C@H](CCCNC(=N)N)NC(=S)Nc1ccc2c(c1)C(=O)OC21c2ccc(O)cc2Oc2cc(O)ccc21)C(=O)N[C@@H](CC(=O)O)C(=O)N[C@@H](Cc1ccc(O)cc1)C(=O)N[C@@H](CCCCN)C(=O)NCC(=O)N1CCC[C@H]1C(=O)N[C@@H](CCCNC(=N)N)C(=O)N[C@@H](CCCNC(=N)N)C(=O)N[C@@H](CCCNC(=N)N)C(=O)N[C@@H](CCCCN)C(=O)N[C@@H](C)C(=O)N[C@@H](CC(=O)O)C(N)=O [SEQ ID NO: 48] ({FITC}-RRRRRRRRDRRRFNSADYKGPRRRKAD-NH2)	–	–	concentration up to which no toxic effect was shown (epithelial HeLa cells): ≤ 32 µg/mL
Ac-DRRAFNSADYKGPRRRKAD-NH2 [compound 16]	35%	780 nM	–
Ac-DRRRFNSAAYKGPRRRKAD-NH2 [compound 21]	2%	150 nM	–
Ac-DRRRFNSADYKGPRRRKLD-NH2 [compound 30]	51%	250 nM	–
Ac-DRARFNSADYKGPRRRKAD-NH2 [compound 15]	11%	1510 nM	–
Ac-DRRRFASADYKGPRRRKAD-NH2 [compound 18]	1%	220 nM	–
Ac-DRRRFNAADYKGPRRRKAD-NH2 [compound 19]	30%	210 nM	–
Ac-DRRRFNSADYAGPRRRKAD-NH2 [compound 23]	42%	260 nM	–
Ac-DARRFNSADYKGPRRRKAD-NH2 [compound 14]	12%	1450 nM	–
Ac-DRRRFNSADYKGPARRKAD-NH2 [compound 26]	27%	1830 nM	–
Ac-ARRRFNSADYKGPRRRKAD-NH2 [compound 13]	56%	1530 nM	–
C[C@H](NC(=O)[C@H](CO)NC(=O)[C@H](CC(N)=O)NC(=O)[C@H](Cc1ccccc1)NC(=O)[C@H](CCCNC(=N)N)NC(=O)[C@H](CCCNC(=N)N)NC(=O)[C@H](CCCNC(=N)N)NC(=O)CNC(=O)[C@H](CC(=O)O)NC(=O)[C@H](CCCNC(=N)N)NC(=O)[C@H](CCCNC(=N)N)NC(=O)[C@H](CCCNC(=N)N)NC(=O)[C@H](CCC(N)=O)NC(=O)[C@H](CCCNC(=N)N)NC(=O)[C@H](CCCNC(=N)N)NC(=O)[C@H](CCCCN)NC(=O)[C@H](CCCCN)NC(=O)[C@H](CCCNC(=N)N)NC(=O)CNC(=O)[C@H](Cc1ccc(O)cc1)NC(=S)Nc1ccc2c(c1)C(=O)OC21c2ccc(O)cc2Oc2cc(O)ccc21)C(=O)N[C@@H](CC(=O)O)C(=O)N[C@@H](Cc1ccc(O)cc1)C(=O)N[C@@H](CCCCN)C(=O)NCC(=O)N1CCC[C@H]1C(=O)N[C@@H](CCCNC(=N)N)C(=O)N[C@@H](CCCNC(=N)N)C(=O)N[C@@H](CCCNC(=N)N)C(=O)N[C@@H](CCCCN)C(=O)N[C@@H](C)C(=O)N[C@@H](CC(=O)O)C(N)=O [SEQ ID NO: 51] ({FITC}-YGRKKRRQRRRDGRRRFNSADYKGPRRRKAD-NH2)	–	–	MBIC50 ([1]; peptide concentration leading to 50% biofilm reduction, MHB, 37°C, 24 hours, without agitation): below 0.25 mg/L; concentration up to which no toxic effect was shown (epithelial HeLa cells): ≤ 64 µg/mL
C[C@H](NC(=O)[C@H](CO)NC(=O)[C@H](CC(N)=O)NC(=O)[C@H](Cc1ccccc1)NC(=O)[C@H](CCCNC(=N)N)NC(=O)[C@H](CCCNC(=N)N)NC(=O)[C@H](CCCNC(=N)N)NC(=O)[C@H](CC(=O)O)NC(=S)Nc1ccc2c(c1)C(=O)OC21c2ccc(O)cc2Oc2cc(O)ccc21)C(=O)N[C@@H](CC(=O)O)C(=O)N[C@@H](Cc1ccc(O)cc1)C(=O)N[C@@H](CCCCN)C(=O)NCC(=O)N1CCC[C@H]1C(=O)N[C@@H](CCCNC(=N)N)C(=O)N[C@@H](CCCNC(=N)N)C(=O)N[C@@H](CCCNC(=N)N)C(=O)N[C@@H](CCCCN)C(=O)N[C@@H](C)C(=O)N[C@@H](CC(=O)O)C(N)=O [compound 43] ({FITC}-DRRRFNSADYKGPRRRKAD-NH2)	–	–	MBIC50 ([1]; PAO1, 24 h): 0.25 to 0.5 mg/L
Ac-DRRRFNSADYKGPRRRKAD-NH2 [compound 12]	–	–	MBIC50 ([1]; PAO1, 24 h): 0.25 to 0.5 mg/L
Ac-DRRRFNSLDYKGPRRRKAD-NH2 [compound 20]	27%	100 nM	–
Ac-DRRRFNSADYKGPRRRKAA-NH2 [compound 31]	26%	1750 nM	–
C[C@H](NC(=O)[C@H](CO)NC(=O)[C@H](CC(N)=O)NC(=O)[C@H](Cc1ccccc1)NC(=O)[C@H](CCCNC(=N)N)NC(=O)[C@H](CCCNC(=N)N)NC(=O)[C@H](CCCNC(=N)N)NC(=O)[C@H](CC(=O)O)NC(=S)Nc1ccc2c(c1)C(=O)OC21c2ccc(O)cc2Oc2cc(O)ccc21)C(=O)N[C@@H](CC(=O)O)C(=O)N[C@@H](Cc1ccc(O)cc1)C(=O)N[C@@H](CCCCN)C(=O)NCC(=O)N1CCC[C@H]1C(=O)N[C@@H](CCCNC(=N)N)C(=O)N[C@@H](CCCNC(=N)N)C(=O)N[C@@H](CCCNC(=N)N)C(=O)N[C@@H](CCCCN)C(=O)N[C@@H](C)C(=O)N[C@@H](CC(=O)O)C(N)=O [SEQ ID NO: 43, FITC-DRRRFNSADYKGPRRRKAD-NH2] ({FITC}-DRRRFNSADYKGPRRRKAD-NH2)	–	–	concentration up to which no toxic effect was shown (epithelial HeLa cells): ≤ 64 µg/mL
Ac-DRRRANSADYKGPRRRKAD-NH2 [SEQ ID NO: 17, AC-DRRRANSADYKGPRRRKAD-NH2]	70%	–	binding affinity to c-di-GMP, in words (c-di-GMP; compared to the core sequence / peptide of SEQ ID NO: 12): does not significantly reduce binding affinity
Ac-DRRRFNSADYKGARRRKAD-NH2 [compound 25]	30%	350 nM	–
Ac-DRRRFNSADYKAPRRRKAD-NH2 [compound 24]	41%	4070 nM	–
Ac-DRRRFNSADAKGPRRRKAD-NH2 [compound 22]	39%	4360 nM	–
